Experimental data from ChEMBL document CHEMBL3132769, “Fragment growing to retain or alter the selectivity of anchored kinase hinge-binding fragments” (Medchemcomm, 2014).

What was measured:
[1] = target: RAC-alpha serine/threonine-protein kinase (Homo sapiens) (UniProt P31749); assay: Inhibition of human AKT1 catalytic domain expressed in baculovirus assessed as substrate phosphorylation using fluorescence-labelled peptides as substrate at 9 uM after 90 mins by microfluidic peptide phosphorylation assay
Sequence of RAC-alpha serine/threonine-protein kinase (Homo sapiens) (P31749 whole entry, the tested form may be a part): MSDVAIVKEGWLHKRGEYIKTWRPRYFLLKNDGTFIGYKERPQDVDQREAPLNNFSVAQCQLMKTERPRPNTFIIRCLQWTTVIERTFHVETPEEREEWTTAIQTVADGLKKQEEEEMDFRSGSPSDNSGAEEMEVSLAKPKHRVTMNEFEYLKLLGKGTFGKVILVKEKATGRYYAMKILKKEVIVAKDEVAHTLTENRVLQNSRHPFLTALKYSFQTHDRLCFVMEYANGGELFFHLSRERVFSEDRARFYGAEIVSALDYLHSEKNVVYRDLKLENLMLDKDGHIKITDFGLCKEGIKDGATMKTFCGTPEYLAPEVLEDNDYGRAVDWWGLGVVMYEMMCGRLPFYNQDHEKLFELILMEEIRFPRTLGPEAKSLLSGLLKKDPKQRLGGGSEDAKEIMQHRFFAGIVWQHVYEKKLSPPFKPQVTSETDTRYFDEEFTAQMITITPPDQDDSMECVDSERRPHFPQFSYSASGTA

[2] = target: Protein kinase C beta type (Homo sapiens) (UniProt P05771); assay: Inhibition of human truncated PKC beta1 expressed in baculovirus assessed as substrate phosphorylation using fluorescence-labelled peptides as substrate at 0.1 uM after 90 mins by microfluidic peptide phosphorylation assay
Sequence of Protein kinase C beta type (Homo sapiens) (P05771 2-671 limits assumed): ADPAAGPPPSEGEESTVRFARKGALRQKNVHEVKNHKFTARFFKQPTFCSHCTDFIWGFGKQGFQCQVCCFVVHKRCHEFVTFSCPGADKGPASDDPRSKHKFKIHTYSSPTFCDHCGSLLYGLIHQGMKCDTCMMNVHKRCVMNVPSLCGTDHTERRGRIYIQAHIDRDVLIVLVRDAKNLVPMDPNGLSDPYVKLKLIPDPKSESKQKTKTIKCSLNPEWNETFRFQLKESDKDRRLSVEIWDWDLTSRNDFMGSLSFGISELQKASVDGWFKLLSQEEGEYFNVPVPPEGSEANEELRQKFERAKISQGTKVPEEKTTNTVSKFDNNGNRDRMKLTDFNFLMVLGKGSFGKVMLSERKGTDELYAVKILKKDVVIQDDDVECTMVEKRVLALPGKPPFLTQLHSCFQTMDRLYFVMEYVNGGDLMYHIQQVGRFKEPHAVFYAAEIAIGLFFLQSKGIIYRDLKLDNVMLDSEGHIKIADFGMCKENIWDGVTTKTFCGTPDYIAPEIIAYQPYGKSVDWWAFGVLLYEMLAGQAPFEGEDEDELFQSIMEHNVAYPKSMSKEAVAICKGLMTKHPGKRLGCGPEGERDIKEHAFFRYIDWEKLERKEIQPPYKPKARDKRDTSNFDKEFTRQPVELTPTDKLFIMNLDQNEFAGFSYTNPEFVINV

[3] = target: T1, Serine/threonine-protein kinase Sgk2 (Homo sapiens) (UniProt Q9HBY8); assay: Inhibition of human full length SGK2 expressed in baculovirus assessed as substrate phosphorylation using fluorescence-labelled peptides as substrate at 0.1 uM after 90 mins by microfluidic peptide phosphorylation assay
T1 sequence (whole entry): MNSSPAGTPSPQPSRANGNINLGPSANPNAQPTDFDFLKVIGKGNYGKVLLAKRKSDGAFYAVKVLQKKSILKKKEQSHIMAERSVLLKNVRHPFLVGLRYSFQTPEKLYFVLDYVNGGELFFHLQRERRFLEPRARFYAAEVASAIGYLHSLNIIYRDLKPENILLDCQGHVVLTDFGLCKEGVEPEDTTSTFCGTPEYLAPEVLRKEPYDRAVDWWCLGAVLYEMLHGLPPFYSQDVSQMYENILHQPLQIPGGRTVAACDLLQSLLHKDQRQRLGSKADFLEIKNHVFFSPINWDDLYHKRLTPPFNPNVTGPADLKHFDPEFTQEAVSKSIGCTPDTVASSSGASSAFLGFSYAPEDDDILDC

[4] = target: Receptor-type tyrosine-protein kinase FLT3 (Homo sapiens) (UniProt P36888); assay: Inhibition of human FLT3 catalytic domain expressed in baculovirus assessed as substrate phosphorylation using fluorescence-labelled peptides as substrate at 0.1 uM after 90 mins by microfluidic peptide phosphorylation assay
Sequence of Receptor-type tyrosine-protein kinase FLT3 (Homo sapiens) (P36888 whole entry, the tested form may be a part): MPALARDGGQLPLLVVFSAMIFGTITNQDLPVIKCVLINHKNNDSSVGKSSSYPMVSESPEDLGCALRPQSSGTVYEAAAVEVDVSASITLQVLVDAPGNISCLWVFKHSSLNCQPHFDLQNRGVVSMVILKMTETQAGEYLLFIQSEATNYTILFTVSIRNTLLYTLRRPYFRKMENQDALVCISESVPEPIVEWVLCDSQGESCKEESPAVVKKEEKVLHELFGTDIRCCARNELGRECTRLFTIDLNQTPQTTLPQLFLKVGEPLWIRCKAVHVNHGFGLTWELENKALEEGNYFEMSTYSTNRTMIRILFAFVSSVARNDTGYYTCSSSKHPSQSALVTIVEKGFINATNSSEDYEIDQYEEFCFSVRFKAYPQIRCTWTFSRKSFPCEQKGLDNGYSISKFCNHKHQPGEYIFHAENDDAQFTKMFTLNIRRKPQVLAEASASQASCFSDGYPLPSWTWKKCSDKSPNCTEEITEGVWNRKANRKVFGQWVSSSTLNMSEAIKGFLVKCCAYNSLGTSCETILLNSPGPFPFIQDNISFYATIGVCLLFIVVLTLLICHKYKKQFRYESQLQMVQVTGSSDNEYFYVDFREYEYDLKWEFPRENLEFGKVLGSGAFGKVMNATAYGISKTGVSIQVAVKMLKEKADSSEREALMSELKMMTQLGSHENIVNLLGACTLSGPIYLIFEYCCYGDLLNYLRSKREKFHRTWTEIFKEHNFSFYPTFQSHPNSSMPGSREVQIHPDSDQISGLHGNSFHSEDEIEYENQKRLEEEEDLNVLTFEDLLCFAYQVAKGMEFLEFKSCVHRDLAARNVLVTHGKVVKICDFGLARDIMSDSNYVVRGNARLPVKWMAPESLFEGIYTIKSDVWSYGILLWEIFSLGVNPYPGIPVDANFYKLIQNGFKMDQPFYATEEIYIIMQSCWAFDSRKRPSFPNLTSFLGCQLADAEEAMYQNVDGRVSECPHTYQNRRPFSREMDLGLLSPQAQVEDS

[5] = target: Insulin receptor (Homo sapiens) (UniProt P06213); assay: Inhibition of human INSR catalytic domain expressed in baculovirus assessed as substrate phosphorylation using fluorescence-labelled peptides as substrate at 95 uM after 90 mins by microfluidic peptide phosphorylation assay
[6] = target: Platelet-derived growth factor receptor alpha (Homo sapiens) (UniProt P16234); assay: Inhibition of human PDGFR alpha catalytic domain expressed in baculovirus assessed as substrate phosphorylation using fluorescence-labelled peptides as substrate at […] after 90 mins by microfluidic peptide phosphorylation assay
Sequence of Platelet-derived growth factor receptor alpha (Homo sapiens) (P16234 whole entry, the tested form may be a part): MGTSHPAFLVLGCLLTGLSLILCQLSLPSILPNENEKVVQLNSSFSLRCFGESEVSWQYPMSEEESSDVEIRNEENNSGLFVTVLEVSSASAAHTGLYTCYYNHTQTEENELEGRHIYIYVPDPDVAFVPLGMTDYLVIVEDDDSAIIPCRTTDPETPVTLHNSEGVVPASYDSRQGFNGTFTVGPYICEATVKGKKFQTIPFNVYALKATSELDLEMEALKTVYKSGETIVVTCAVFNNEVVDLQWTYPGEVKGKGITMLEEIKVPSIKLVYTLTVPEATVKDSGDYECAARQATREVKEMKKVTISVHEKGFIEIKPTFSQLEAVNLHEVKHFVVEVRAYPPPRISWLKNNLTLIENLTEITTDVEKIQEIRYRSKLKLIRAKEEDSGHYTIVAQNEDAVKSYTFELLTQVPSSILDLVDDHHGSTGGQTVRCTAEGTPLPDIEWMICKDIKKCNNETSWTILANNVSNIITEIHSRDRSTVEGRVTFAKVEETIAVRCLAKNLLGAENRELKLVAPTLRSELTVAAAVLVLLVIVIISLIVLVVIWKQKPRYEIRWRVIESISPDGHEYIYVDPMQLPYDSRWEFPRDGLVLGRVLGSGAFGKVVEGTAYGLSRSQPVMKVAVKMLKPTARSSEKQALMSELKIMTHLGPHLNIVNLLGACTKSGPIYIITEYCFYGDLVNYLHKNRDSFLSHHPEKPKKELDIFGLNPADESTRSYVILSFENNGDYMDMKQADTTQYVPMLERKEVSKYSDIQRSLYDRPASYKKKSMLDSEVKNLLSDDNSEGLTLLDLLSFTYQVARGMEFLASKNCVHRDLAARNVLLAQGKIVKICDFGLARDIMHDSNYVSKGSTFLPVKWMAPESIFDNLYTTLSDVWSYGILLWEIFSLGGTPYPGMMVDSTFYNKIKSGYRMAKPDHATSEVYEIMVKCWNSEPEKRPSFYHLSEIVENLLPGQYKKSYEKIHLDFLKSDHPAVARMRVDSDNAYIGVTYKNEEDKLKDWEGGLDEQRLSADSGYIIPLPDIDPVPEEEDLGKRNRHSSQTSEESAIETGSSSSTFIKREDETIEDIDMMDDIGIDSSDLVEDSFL

[7] = target: T2, Serine/threonine-protein kinase D2 (Homo sapiens) (UniProt Q9BZL6); assay: Inhibition of human full length PKD2 expressed in baculovirus assessed as substrate phosphorylation using fluorescence-labelled peptides as substrate at 8 uM after 90 mins by microfluidic peptide phosphorylation assay
T2 sequence (whole entry): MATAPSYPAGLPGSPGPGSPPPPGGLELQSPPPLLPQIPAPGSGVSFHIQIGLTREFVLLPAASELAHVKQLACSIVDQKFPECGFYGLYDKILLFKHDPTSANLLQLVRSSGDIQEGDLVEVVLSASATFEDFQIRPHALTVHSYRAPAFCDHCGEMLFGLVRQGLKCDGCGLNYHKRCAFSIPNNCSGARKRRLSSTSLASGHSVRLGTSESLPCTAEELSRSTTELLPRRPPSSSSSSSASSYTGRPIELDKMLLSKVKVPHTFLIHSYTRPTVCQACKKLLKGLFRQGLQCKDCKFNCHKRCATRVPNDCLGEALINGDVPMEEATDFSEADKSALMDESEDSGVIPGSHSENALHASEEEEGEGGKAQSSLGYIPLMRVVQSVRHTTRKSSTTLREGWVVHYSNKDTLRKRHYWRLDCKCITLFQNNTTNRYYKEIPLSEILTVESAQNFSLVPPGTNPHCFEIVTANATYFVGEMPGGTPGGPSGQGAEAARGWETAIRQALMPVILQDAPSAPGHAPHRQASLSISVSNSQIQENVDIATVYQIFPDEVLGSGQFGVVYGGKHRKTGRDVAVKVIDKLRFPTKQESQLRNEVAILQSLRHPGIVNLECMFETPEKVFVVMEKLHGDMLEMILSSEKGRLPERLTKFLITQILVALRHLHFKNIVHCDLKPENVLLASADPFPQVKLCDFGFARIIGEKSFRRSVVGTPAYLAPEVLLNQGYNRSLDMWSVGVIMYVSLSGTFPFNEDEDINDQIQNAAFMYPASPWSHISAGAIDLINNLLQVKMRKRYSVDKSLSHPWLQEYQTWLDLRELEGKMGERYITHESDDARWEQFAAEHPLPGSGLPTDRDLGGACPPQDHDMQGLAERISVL

[8] = target: T3, Serine/threonine-protein kinase D3 (Homo sapiens) (UniProt O94806); assay: Inhibition of human full length PKD3 expressed in baculovirus assessed as substrate phosphorylation using fluorescence-labelled peptides as substrate at 8 uM after 90 mins by microfluidic peptide phosphorylation assay
T3 sequence (whole entry): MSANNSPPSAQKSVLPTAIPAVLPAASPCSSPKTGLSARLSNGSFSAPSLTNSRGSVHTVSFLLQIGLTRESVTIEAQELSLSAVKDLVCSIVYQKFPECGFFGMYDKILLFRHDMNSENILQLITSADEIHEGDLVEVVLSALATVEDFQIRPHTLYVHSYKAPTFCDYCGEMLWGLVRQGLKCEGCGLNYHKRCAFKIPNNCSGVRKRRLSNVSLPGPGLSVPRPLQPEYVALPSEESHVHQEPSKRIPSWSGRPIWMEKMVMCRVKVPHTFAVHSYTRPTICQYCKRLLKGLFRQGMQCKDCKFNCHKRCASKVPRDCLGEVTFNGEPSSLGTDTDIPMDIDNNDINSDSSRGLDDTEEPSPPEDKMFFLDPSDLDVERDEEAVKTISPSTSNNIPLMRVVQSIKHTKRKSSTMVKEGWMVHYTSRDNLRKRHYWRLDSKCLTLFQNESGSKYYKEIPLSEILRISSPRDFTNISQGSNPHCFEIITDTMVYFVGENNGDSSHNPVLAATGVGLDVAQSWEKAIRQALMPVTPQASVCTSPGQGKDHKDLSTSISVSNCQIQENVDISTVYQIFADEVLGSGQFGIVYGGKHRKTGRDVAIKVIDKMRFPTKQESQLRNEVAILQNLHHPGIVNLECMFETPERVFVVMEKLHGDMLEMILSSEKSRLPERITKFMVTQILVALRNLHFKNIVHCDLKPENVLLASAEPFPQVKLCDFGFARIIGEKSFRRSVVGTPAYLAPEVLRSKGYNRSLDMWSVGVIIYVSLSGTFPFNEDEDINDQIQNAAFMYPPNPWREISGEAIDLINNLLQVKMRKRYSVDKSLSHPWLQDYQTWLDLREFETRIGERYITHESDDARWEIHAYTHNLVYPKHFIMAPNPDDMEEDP

[9] = target: Mitogen-activated protein kinase 3 (Homo sapiens) (UniProt P27361); assay: Inhibition of human full length ERK1 expressed in Escherichia coli cell assessed as substrate phosphorylation using fluorescence-labelled peptides as substrate at 70 uM after 90 mins by microfluidic peptide phosphorylation assay
Sequence of Mitogen-activated protein kinase 3 (Homo sapiens) (P27361 whole entry): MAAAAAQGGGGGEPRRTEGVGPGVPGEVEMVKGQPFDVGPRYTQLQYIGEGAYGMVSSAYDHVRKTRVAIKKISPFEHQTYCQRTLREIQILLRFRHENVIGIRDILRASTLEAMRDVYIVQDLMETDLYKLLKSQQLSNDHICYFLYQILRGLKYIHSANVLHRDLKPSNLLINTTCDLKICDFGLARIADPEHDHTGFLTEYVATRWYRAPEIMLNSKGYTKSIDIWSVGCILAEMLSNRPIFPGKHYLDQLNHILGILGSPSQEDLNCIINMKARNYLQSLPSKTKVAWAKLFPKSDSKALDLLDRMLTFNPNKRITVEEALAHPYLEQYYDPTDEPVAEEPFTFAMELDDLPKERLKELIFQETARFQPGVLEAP

Q: Which inhibition [1] does the source give for `NCC1CN(c2ncnc3[nH]c4cnccc4c23)CCO1` (centres undefined) here?
A: Its inhibition is 52%.

Q: With `C[C@H](CN(C)C)Oc1nc(Nc2cc3cccc(Cl)c3cn2)cnc1C#N` as the molecule, how does the inhibition [2] read?
A: Its inhibition is 3%.

Q: What about the inhibition [3] of the same molecule?
A: Its inhibition is 5.5%.

Q: What about the inhibition [4] of the same molecule?
A: Its inhibition is 7%.

Q: For `NCCc1ccc(-c2ncnc3[nH]cnc23)cc1`, which inhibition [5] is on record?
A: Its inhibition is 23.5%.

Q: `COC(=O)c1cnc(Nc2cnc(C#N)cn2)cc1NCC1CCNCC1` was tested. Which inhibition [6] did it give?
A: The inhibition was 9.5%.

Q: Which inhibition [7] does the source give for `NCC1CCN(c2ncnc3[nH]ccc23)CC1` here?
A: The inhibition was 28.5%.

Q: And the inhibition [8]?
A: Its inhibition is 0%.

Q: `CNCc1ccc(-c2ncnc3[nH]cnc23)cc1` was tested. Which inhibition [9] did it give?
A: The inhibition was 28.5%.
